Earlier results, collected in PMC8583936, “Machine Learning Assisted Approach for Finding Novel High Activity Agonists of Human Ectopic Olfactory Receptors” (International Journal of Molecular Sciences, 2021).
Counter-ions that a name gives are not always drawn. Like-named read-outs stand apart in the source and are kept apart here.

Columns and labels:
[1] = molecular target: T1, OR1A1 (Homo sapiens, UniProt Q9P1Q5); details: cited from earlier work
T1 sequence (Q9P1Q5 1-309): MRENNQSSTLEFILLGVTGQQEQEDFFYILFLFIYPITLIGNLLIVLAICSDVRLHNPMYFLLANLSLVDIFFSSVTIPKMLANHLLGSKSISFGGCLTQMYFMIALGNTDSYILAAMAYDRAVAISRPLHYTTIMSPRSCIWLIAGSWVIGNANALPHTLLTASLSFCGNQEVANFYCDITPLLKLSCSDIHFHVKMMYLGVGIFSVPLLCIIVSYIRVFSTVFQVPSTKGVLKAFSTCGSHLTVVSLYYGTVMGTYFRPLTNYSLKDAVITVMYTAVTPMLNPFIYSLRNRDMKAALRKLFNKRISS

[2] = molecular target: T2, OR2W1 (Homo sapiens, UniProt Q9Y3N9); details: cited from earlier work
T2 sequence (Q9Y3N9 1-320): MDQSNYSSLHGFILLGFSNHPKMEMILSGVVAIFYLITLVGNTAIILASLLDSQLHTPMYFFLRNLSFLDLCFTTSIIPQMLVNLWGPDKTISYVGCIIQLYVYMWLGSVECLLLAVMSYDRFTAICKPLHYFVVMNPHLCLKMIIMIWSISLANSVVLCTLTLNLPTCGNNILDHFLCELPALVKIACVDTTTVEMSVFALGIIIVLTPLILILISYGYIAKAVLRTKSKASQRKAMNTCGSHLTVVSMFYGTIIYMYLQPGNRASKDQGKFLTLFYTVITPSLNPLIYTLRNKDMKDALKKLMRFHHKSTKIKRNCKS

[3] = Table S1, ref Supplement references [1]-[9] as printed after each odorant name
[4] = Table S2, ref Supplement references [2]-[12] as printed after each odorant name

Compound	Class (agonist / non-agonist / conflicting info.) for OR1A1 [1, 3]	Class (agonist / non-agonist / antagonist / conflicting info.) for OR2W1 [2, 4]	Class (agonist / non-agonist / conflicting info.) for OR1A1 [1]	Class (agonist / non-agonist / antagonist / conflicting info.) for OR2W1 [2]
COc1cc(C)ccc1O [2-methoxy-4-methylphenol]	Non-agonist	Non-agonist		
CCCc1ccc(O)c(OC)c1 [2-methoxy-4-propylphenol]			Non-agonist	Non-agonist
CCC(C)CO (stereo not drawn) [2-methyl-1-butanol]			Non-agonist	Non-agonist
CCC(C)C=O (stereo not drawn) [2-methylbutyraldehyde]	Non-agonist	Non-agonist		
Cc1ccccc1O [2-methylphenol]			Non-agonist	Non-agonist
CCCCCCCC(C)=O [2-nonanone]	Conflicting info.	Agonist		
CCCCCC/C=C\C=O [2-nonenal, (2z)-]	Non-agonist	Non-agonist		
CCCCCCC(C)=O [2-octanone]	Agonist	Agonist		
CCCCC/C=C\C=O [2-octenal, (2z)-]	Non-agonist	Non-agonist		
CCCC(C)=O [2-pentanone]	Non-agonist	Non-agonist		
CCCCCc1ccccn1 [2-pentylpyridine]	Agonist	Agonist		
SCCc1ccccc1 [2-phenylethanethiol]	Agonist	Agonist		
OCCc1ccccc1 [2-phenylethanol]	Non-agonist	Non-agonist		
CCC(=O)C1=NCCC1 [2-propionylpyrroline]	Non-agonist	Non-agonist		
CCCCCCCCC=CC=O [2-undecenal]	Non-agonist	Non-agonist		
CCC(=O)C(=O)CC [3,4-hexanedione]			Non-agonist	Agonist
CC/C=C\CCOC(C)=O [3-Hexenyl acetate, (3Z)-]	Non-agonist	Non-agonist		
CCC(S)C(C)=O (stereo not drawn) [3-Mercapto-2-pentanone]	Non-agonist	Non-agonist		
CC(C)(S)CCOC=O [3-Mercapto-3-methylbutyl formate]	Non-agonist	Non-agonist		
CCCC(S)CCOC(C)=O (stereo not drawn) [3-Mercaptohexyl acetate]	Agonist	Agonist		
CC(C)CCO [3-Methyl-1-butanol]	Non-agonist	Non-agonist		
Cc1c[nH]c2ccccc12 [3-Methyl-1H-indole]	Non-agonist	Non-agonist		
CCCCCC(=O)C(C)C(C)=O (stereo not drawn) [3-Methyl-2,4-nonanedione]	Agonist	Non-agonist		
CCCC(=O)C(C)CC (stereo not drawn) [3-Methylheptan-4-one]	Non-agonist	Non-agonist		
